Results as given in PMC5834492, “Antimycobacterial drug discovery using Mycobacteria-infected amoebae identifies anti-infectives and new molecular targets” (Scientific Reports, 2018).

tested on: M. marinum GFP; type: cell-based, Mycobacterium marinum; conditions: 10 µM; antibiotic assay

SMILES | M. marinum GFP normalised growth, control=1.00, mean
O=C(c1cc2ccccc2o1)N1CCN(Cc2ccc3c(c2)OCO3)CC1 [GSK861337A] | 0.10
COc1ccc(CCNc2cc(-c3ccccc3)nc3ncnn23)cc1 [GSK888636A] | 0.44
Cc1nc2ccccn2c1C(=O)NCc1cccs1 [GSK892651A] | 0.12
CSc1ccccc1C(=O)Nc1nc(-c2ccccn2)cs1 [GSK921190A] | 0.45
Cc1nc2ccccn2c1C(=O)NCc1ccccc1 [GSK957094A] | 0.0746
COc1ccccc1OCCCCn1c(C2CC2)nc2ccccc21 [GSK994258A] | 0.10
COc1ccc(Nc2ccccc2NC(=O)c2ccc(O)nc2)cc1 [GSK1051703A] | 0.84

tested on: Mtb H37Rv in THP-1; set-up: method as in Sorrentino et al, 2015; conditions: THP1 / Mtb H37Rv infection assay; ref Sorrentino et al, 2015; cited from earlier work

SMILES | Intracelullar MIC90 in THP-1
O=C(c1cc2ccccc2o1)N1CCN(Cc2ccc3c(c2)OCO3)CC1 [GSK861337A] | 5.55 µM
COc1ccc(CCNc2cc(-c3ccccc3)nc3ncnn23)cc1 [GSK888636A] | 1.85 µM
Cc1nc2ccccn2c1C(=O)NCc1cccs1 [GSK892651A] | 5.55 µM
CSc1ccccc1C(=O)Nc1nc(-c2ccccn2)cs1 [GSK921190A] | 16.65 µM
Cc1nc2ccccn2c1C(=O)NCc1ccccc1 [GSK957094A] | 5.55 µM
COc1ccccc1OCCCCn1c(C2CC2)nc2ccccc21 [GSK994258A] | 5.55 µM
COc1ccc(Nc2ccccc2NC(=O)c2ccc(O)nc2)cc1 [GSK1051703A] | 5.55 µM

same assay, conditions: ratio; ref Sorrentino et al, 2015; cited from earlier work

SMILES | Extracellular MIC90/ Inracellular MIC90
O=C(c1cc2ccccc2o1)N1CCN(Cc2ccc3c(c2)OCO3)CC1 [GSK861337A] | 0.49
COc1ccc(CCNc2cc(-c3ccccc3)nc3ncnn23)cc1 [GSK888636A] | 0.32
Cc1nc2ccccn2c1C(=O)NCc1cccs1 [GSK892651A] | 1.62
CSc1ccccc1C(=O)Nc1nc(-c2ccccn2)cs1 [GSK921190A] | 0.1
Cc1nc2ccccn2c1C(=O)NCc1ccccc1 [GSK957094A] | 0.36
COc1ccccc1OCCCCn1c(C2CC2)nc2ccccc21 [GSK994258A] | 0.61
COc1ccc(Nc2ccccc2NC(=O)c2ccc(O)nc2)cc1 [GSK1051703A] | 1.28

tested on: M. marinum luxCDABE; type: cell-based, Mycobacterium marinum; conditions: 10 µM

SMILES | M. marinum luxCDABE normalised growth, control=1.00, mean
O=C(c1cc2ccccc2o1)N1CCN(Cc2ccc3c(c2)OCO3)CC1 [GSK861337A] | 0.00
COc1ccc(CCNc2cc(-c3ccccc3)nc3ncnn23)cc1 [GSK888636A] | 0.00
Cc1nc2ccccn2c1C(=O)NCc1cccs1 [GSK892651A] | 0.00
CSc1ccccc1C(=O)Nc1nc(-c2ccccn2)cs1 [GSK921190A] | 0.10
Cc1nc2ccccn2c1C(=O)NCc1ccccc1 [GSK957094A] | 0.11
COc1ccccc1OCCCCn1c(C2CC2)nc2ccccc21 [GSK994258A] | 0.00
COc1ccc(Nc2ccccc2NC(=O)c2ccc(O)nc2)cc1 [GSK1051703A] | 1.00

tested on: M. marinum in A. castellanii; type: cell-based, Mycobacterium marinum; conditions: 10 µM

SMILES | A. castellanii / M. marinum normalised growth, control=1.00, mean
O=C(c1cc2ccccc2o1)N1CCN(Cc2ccc3c(c2)OCO3)CC1 [GSK861337A] | 0.70
COc1ccc(CCNc2cc(-c3ccccc3)nc3ncnn23)cc1 [GSK888636A] | 1.02
Cc1nc2ccccn2c1C(=O)NCc1cccs1 [GSK892651A] | 0.65
CSc1ccccc1C(=O)Nc1nc(-c2ccccn2)cs1 [GSK921190A] | 1.20
Cc1nc2ccccn2c1C(=O)NCc1ccccc1 [GSK957094A] | 0.54
COc1ccccc1OCCCCn1c(C2CC2)nc2ccccc21 [GSK994258A] | 1.03
COc1ccc(Nc2ccccc2NC(=O)c2ccc(O)nc2)cc1 [GSK1051703A] | 1.00

tested on: Mtb H37Rv; set-up: method as in Sorrentino et al, 2015; conditions: ref Sorrentino et al, 2015; cited from earlier work

SMILES | Extracellular MIC90
O=C(c1cc2ccccc2o1)N1CCN(Cc2ccc3c(c2)OCO3)CC1 [GSK861337A] | 2.7 µM
COc1ccc(CCNc2cc(-c3ccccc3)nc3ncnn23)cc1 [GSK888636A] | 0.6 µM
Cc1nc2ccccn2c1C(=O)NCc1cccs1 [GSK892651A] | 9 µM
CSc1ccccc1C(=O)Nc1nc(-c2ccccn2)cs1 [GSK921190A] | 1.7 µM
Cc1nc2ccccn2c1C(=O)NCc1ccccc1 [GSK957094A] | 2 µM
COc1ccccc1OCCCCn1c(C2CC2)nc2ccccc21 [GSK994258A] | 3.4 µM
COc1ccc(Nc2ccccc2NC(=O)c2ccc(O)nc2)cc1 [GSK1051703A] | 7.1 µM

tested on: M. marinum in BV2 microglial cells; type: cell-based, Mycobacterium marinum; conditions: not given

SMILES | IC50
O=C(c1cc2ccccc2o1)N1CCN(Cc2ccc3c(c2)OCO3)CC1 [GSK861337A] | 9.31 µM
COc1ccc(CCNc2cc(-c3ccccc3)nc3ncnn23)cc1 [GSK888636A] | 5.42 µM
Cc1nc2ccccn2c1C(=O)NCc1cccs1 [GSK892651A] | 4.41 µM
CSc1ccccc1C(=O)Nc1nc(-c2ccccn2)cs1 [GSK921190A] | 4.08 µM
Cc1nc2ccccn2c1C(=O)NCc1ccccc1 [GSK957094A] | 7.59 µM
COc1ccccc1OCCCCn1c(C2CC2)nc2ccccc21 [GSK994258A] | 8.73 µM
COc1ccc(Nc2ccccc2NC(=O)c2ccc(O)nc2)cc1 [GSK1051703A] | 6.47 µM

same assay, conditions: 10 µM

SMILES | BV2 / M. marinum normalised growth, control=1.00, mean
O=C(c1cc2ccccc2o1)N1CCN(Cc2ccc3c(c2)OCO3)CC1 [GSK861337A] | 0.77
COc1ccc(CCNc2cc(-c3ccccc3)nc3ncnn23)cc1 [GSK888636A] | 0.72
Cc1nc2ccccn2c1C(=O)NCc1cccs1 [GSK892651A] | 0.60
CSc1ccccc1C(=O)Nc1nc(-c2ccccn2)cs1 [GSK921190A] | 0.94
Cc1nc2ccccn2c1C(=O)NCc1ccccc1 [GSK957094A] | 0.52
COc1ccccc1OCCCCn1c(C2CC2)nc2ccccc21 [GSK994258A] | 0.59
COc1ccc(Nc2ccccc2NC(=O)c2ccc(O)nc2)cc1 [GSK1051703A] | 0.65

tested on: D. discoideum GFP-ABD; conditions: 10 µM

SMILES | D. discoideum GFP-ABD normalised growth, control=1.00, mean
O=C(c1cc2ccccc2o1)N1CCN(Cc2ccc3c(c2)OCO3)CC1 [GSK861337A] | 0.31
COc1ccc(CCNc2cc(-c3ccccc3)nc3ncnn23)cc1 [GSK888636A] | 1.15
Cc1nc2ccccn2c1C(=O)NCc1cccs1 [GSK892651A] | 0.83
CSc1ccccc1C(=O)Nc1nc(-c2ccccn2)cs1 [GSK921190A] | 0.94
Cc1nc2ccccn2c1C(=O)NCc1ccccc1 [GSK957094A] | 0.93
COc1ccccc1OCCCCn1c(C2CC2)nc2ccccc21 [GSK994258A] | 0.31
COc1ccc(Nc2ccccc2NC(=O)c2ccc(O)nc2)cc1 [GSK1051703A] | 1.00
